Measurements from publication PMC4852132 (Biochemistry, 2016).
“And” between values parts separate entries of the source, which are not always exact repeats. Identical values can stand only once. Like-named read-outs stand apart in the source and are kept apart here.

What was measured:
E1p-h [1] = target: T1, E1p-h (Homo sapiens, UniProt P08559+P11177); assay: E1p-h specific activity by rate of reduction of DCPIP; type: biochemical; conditions: for E1p-h specific activity, percent of that with ThDP: cofactor 0.2 or 0.5 mM
T1 sequence (P08559 30-390): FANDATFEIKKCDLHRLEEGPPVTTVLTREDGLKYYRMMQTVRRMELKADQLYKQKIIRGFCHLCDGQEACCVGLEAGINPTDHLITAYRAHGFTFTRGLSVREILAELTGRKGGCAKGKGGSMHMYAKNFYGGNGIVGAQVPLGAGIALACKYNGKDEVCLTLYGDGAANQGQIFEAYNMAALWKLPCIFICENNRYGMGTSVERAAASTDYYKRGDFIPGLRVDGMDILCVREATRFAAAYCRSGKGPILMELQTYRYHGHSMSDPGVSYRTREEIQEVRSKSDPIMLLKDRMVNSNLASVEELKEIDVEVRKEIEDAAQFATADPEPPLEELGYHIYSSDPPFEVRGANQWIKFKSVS
T1 sequence (P11177 31-359): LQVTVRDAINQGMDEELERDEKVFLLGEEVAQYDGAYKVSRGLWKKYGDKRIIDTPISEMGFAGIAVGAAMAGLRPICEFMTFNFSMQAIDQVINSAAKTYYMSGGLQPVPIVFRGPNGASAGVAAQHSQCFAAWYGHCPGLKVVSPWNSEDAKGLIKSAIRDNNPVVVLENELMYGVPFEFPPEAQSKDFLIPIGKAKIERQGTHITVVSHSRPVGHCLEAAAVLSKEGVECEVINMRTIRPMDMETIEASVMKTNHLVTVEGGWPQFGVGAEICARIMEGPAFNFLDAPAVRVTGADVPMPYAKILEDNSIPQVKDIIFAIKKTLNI

OGDHc-ec = OGDHc-ec (Escherichia coli, UniProt P0AFG3); assay: Overall OGDHc-ec activity by formation of NADH; type: biochemical
E1p-ec [2] = target: T2, E1p-ec (Escherichia coli, UniProt P0AFG8); conditions: cofactor 0.2 mM
PDHc-ec [3] = target: T3, PDHc-ec (Escherichia coli, UniProt P0AFG8)
E1p-h [4] = target: T1, E1p-h; conditions: MeOThDP bound on E1p-h; CD309 vs pH
E1p-ec [5] = target: T2, E1p-ec
E1o-h = target: T4, E1o-h (Homo sapiens, UniProt Q02218); assay: E1o-h specific activity; type: biochemical
T4 sequence (Q02218 41-1023): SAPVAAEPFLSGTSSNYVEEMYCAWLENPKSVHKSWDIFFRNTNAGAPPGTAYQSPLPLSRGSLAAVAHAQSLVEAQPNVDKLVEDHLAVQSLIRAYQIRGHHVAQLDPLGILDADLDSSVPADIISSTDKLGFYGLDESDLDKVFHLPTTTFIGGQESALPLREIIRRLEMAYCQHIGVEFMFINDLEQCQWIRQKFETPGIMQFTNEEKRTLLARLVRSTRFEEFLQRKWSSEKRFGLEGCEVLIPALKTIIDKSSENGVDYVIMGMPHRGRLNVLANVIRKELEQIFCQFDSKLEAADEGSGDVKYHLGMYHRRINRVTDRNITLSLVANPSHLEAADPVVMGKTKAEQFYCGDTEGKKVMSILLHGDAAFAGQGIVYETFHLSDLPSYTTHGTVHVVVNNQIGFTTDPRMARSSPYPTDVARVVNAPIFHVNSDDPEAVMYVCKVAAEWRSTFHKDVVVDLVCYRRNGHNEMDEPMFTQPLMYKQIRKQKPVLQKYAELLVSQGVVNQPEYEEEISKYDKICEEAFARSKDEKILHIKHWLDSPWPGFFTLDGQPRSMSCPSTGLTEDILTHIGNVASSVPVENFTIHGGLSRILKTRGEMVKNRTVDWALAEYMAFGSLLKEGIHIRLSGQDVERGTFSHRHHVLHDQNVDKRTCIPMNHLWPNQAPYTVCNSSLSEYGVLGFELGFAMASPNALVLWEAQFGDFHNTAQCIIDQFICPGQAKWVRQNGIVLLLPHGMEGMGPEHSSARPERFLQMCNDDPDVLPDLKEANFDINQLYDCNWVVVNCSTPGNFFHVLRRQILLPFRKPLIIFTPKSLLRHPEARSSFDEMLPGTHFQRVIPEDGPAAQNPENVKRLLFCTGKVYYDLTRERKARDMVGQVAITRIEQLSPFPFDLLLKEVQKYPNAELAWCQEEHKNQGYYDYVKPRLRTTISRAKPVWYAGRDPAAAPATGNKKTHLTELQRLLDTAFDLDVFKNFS

E1o-ec = E1o-ec (Escherichia coli, UniProt P0AFG3); assay: E1o-ec specific activity; type: biochemical
PDHc-ec [6] = target: T3, PDHc-ec; conditions: ThDP binding to PDHc-ec; cited from earlier work
E1p-h [7] = target: T1, E1p-h; conditions: ThDP on E1p-h; cited from earlier work
E1p-ec [8] = target: T2, E1p-ec; conditions: E1p-ec complexed with ThDP; cited from earlier work
E1p-ec [9] = target: T2, E1p-ec; assay: biochemical
DXPS = DXPS (Escherichia coli, UniProt P77488); assay: biochemical
[10] = MeOThDP, PDHc-ec reconstituted from apo-E1p-ec, from lag phase

COc1ncc(C[n+]2csc(CCOP(=O)(O)OP(=O)(O)O)c2C)c(N)n1 [MeOThDP, 2′-methoxythiamin diphosphate]
E1p-h specific activity (E1p-h [1]; cofactor 0.2 and 0.5 mM, E1p-h alone, model reaction): 0.017 ± 0.01 µmol min^−1 (mg of E1p-h)^−1 | E1p-h specific activity, percent of that with ThDP (E1p-h [1]): ~49% | overall OGDHc activity, percent of that with ThDP (OGDHc-ec; listed as MeOThP): 42% and 69% | E1p-ec specific activity, percent of that with ThDP (E1p-ec [2]): ~19% | K1 binding constant (PDHc-ec [3]; MeOThDP, PDHc-ec reconstituted from apo-E1p-ec, E2p-ec, E3-ec, from lag phase): 300000 M⁻¹ | k2 forward rate constant of binding (PDHc-ec [3]; [10]): 0.0087 s⁻¹ | k3 forward rate constant for second cofactor binding (PDHc-ec [3]; [10]): 49 M⁻¹ s⁻¹ | k-2 dissociation rate constant (PDHc-ec [3]; [10]): 0.0033 s⁻¹ | k-3 reverse rate constant for dissociation of second cofactor (PDHc-ec [3]; [10]): 0.0069 s⁻¹ | k3 times lower than that for ThDP (PDHc-ec [3]; binding of second MeOThDP vs ThDP): ~ 14 times | Kd (PDHc-ec [3]; read-out: Kd,MeOThDP calculated as 1/K1,MeOThDP, from Table 2): 3.45 ± 0.74 µM | pKa for the ([AP] + [IP])/[APH^+] equilibrium (E1p-h [4]): 8.02 ± 0.03 | rate constant of reductive acetylation of LDh-ec (E1p-ec [5]; E1p-ec complexed with MeOThDP (0.20 mM), 2 mM pyruvate): 4.4 s⁻¹ | rate constant of reductive acetylation, times slower than with ThDP (E1p-ec [5]; E1p-ec with MeOThDP vs ThDP): at least 10 times

Cc1ncc(C[n+]2csc(CCOP(=O)([O-])OP(=O)(O)O)c2C)c(N)n1 [ThDP, thiamin diphosphate]
E1p-h specific activity, percent of that with ThDP (E1p-h [1]): 100% | overall OGDHc activity, percent of that with ThDP (OGDHc-ec): 100% | E1o specific activity, percent of that with ThDP (E1o-h; E1o-h): 100% | E1o specific activity (E1o-h; E1o-h alone): 0.51 ± 0.02 µmol min^−1 (mg of E1o)^−1 and 0.44 ± 0.08 µmol min^−1 (mg of E1o)^−1 | E1o specific activity, percent of that with ThDP (E1o-ec; E1o-ec): 100% | E1o specific activity (E1o-ec; E1o-ec alone): 0.54 ± 0.03 µmol min^−1 (mg of E1o)^−1 and 0.54 ± 0.31 µmol min^−1 (mg of E1o)^−1 | E1p-ec specific activity, percent of that with ThDP (E1p-ec [2]): 100% | E1p-ec specific activity (E1p-ec [2]; E1p-ec alone, model reaction): 0.36 ± 0.01 µmol min^−1 (mg of E1p-ec)^−1 | K1 binding constant (PDHc-ec [6]): 1.2e+06 M⁻¹ | k2 forward rate constant of binding (PDHc-ec [6]): 0.0112 s⁻¹ | k3 forward rate constant for second cofactor binding (PDHc-ec [6]): 710 M⁻¹ s⁻¹ | k-2 dissociation rate constant (PDHc-ec [6]): 0.0038 s⁻¹ | k-3 reverse rate constant for dissociation of second cofactor (PDHc-ec [6]): 0.0076 s⁻¹ | pKa for the ([AP] + [IP])/[APH^+] equilibrium (E1p-h [7]): 7.07 ± 0.1 | rate constant of reductive acetylation of LDh-ec (E1p-ec [8]): 52 s⁻¹ | Kd (E1p-ec [9]): 7 ± 0.9 µM | Kd (DXPS): 3.5 ± 0.1 µM
